Experimental data reported in publication PMC7099587 (ACS Central Science, 2020).
Numbered stars: 1 amine (or outer) side, 2 acyl side, 3 side chain; on linkers, the order of the positions; unused ones are H or OH. Bridge positions count the residues as written; N and C are the ends. Square brackets hold non-standard residues; d marks the D form. Ends that are not written are not given here. Peptide text beside a SMILES is read from it. CH2CH2 = C(C[*:2])[*:1]

Legend:
Sonic Hedgehog (Shh) = Sonic Hedgehog (Shh) (Homo sapiens, UniProt Q15465); assay: Shh binding assay
Shh = conditions: read-out: KD (Shh); cited from earlier work
[1] = target: HHIP L2 linear peptide L2 loop (Homo sapiens) (UniProt Q96QV1); conditions: cited from earlier work
[2] = target: Sonic Hedgehog construct with N-terminal poly-His tag and TEV-cleavable linker ("Shh") (UniProt Q15465); assay: ELISA
Keap1 Kelch domain (KKD) = Keap1 Kelch domain (KKD) (Homo sapiens, UniProt Q14145); assay: Keap1 Kelch domain direct binding assay
Keap1 Kelch domain (KKD), sequence (Q14145 321-609 limits assumed): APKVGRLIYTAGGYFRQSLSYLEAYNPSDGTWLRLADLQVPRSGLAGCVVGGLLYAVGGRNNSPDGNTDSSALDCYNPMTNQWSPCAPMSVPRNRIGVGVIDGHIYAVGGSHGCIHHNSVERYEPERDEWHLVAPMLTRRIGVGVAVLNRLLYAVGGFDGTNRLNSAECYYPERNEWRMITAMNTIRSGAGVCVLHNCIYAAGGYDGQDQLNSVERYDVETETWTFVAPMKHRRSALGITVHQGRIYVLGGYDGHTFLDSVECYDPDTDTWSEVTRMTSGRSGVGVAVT

[3] = target: Kelch domain of Kelch-like ECH-associated protein 1 (Keap1); assay: ELISA

Molecule: CSCC[C@@H]1NC(=O)[C@H](C)NC(=O)[C@H](CCC(=O)O)NC(=O)[C@@H](NC(=O)[C@@H]2CCCN2C(=O)[C@H](CO)NC(=O)[C@H](CO)NC(=O)CNC(=O)[C@H](CO)NC(=O)CNC(=O)[C@H](CO)NC(=O)CNC(=O)[C@H](CCCCN)NC(=O)[C@H](CC(=O)O)NC(=O)[C@H](CC(=O)O)NC(=O)[C@H](CC(=O)O)NC(=O)[C@H](CC(=O)O)NC(=O)[C@H](CCCCN)NC(=O)[C@H](Cc2ccc(O)cc2)NC(=O)[C@H](CC(=O)O)NC(=O)[C@@H](N)CCSC)Cc2ccc(cc2)OCCSC[C@@H](C(=O)N[C@H](C(=O)N[C@@H](CC(=O)O)C(=O)N[C@H](C(=O)O)[C@@H](C)O)[C@@H](C)O)NC(=O)[C@H](CCSC)NC(=O)[C@H](CC(=O)O)NC1=O [Shh-m1] (H-MDYKDDDDKGSGSGSSPYEAMDMCTDT-OH; linker 18-24 via CH2CH2; N-terminus and C-terminus assumed)
- Kd (Sonic Hedgehog (Shh)): 550 nM

Molecule: CSCC[C@@H]1NC(=O)[C@H](CCC(=O)O)NC(=O)[C@H](CCC(=O)O)NC(=O)[C@@H](NC(=O)[C@H](CC(=O)O)NC(=O)[C@H](CC(=O)O)NC(=O)[C@H](CC(C)C)NC(=O)[C@@H](NC(=O)[C@H](CO)NC(=O)CNC(=O)[C@H](CO)NC(=O)CNC(=O)[C@H](CCCCN)NC(=O)[C@H](CC(=O)O)NC(=O)[C@H](CC(=O)O)NC(=O)[C@H](CC(=O)O)NC(=O)[C@H](CC(=O)O)NC(=O)[C@H](CCCCN)NC(=O)[C@H](Cc2ccc(O)cc2)NC(=O)[C@H](CC(=O)O)NC(=O)[C@@H](N)CCSC)[C@@H](C)O)Cc2ccc(cc2)OCCSC[C@@H](C(=O)N[C@@H](CO)C(=O)N[C@@H](CC(=O)O)C(=O)N[C@H](C(=O)O)[C@@H](C)O)NC(=O)CNC(=O)[C@H](CC(=O)O)NC1=O [cyclic version of the HHIP L2 sequence] (H-MDYKDDDDKGSGSTLDDYEEMDGCSDT-OH; linker 18-24 via CH2CH2; C-terminus assumed)
- fold lower affinity vs Shh-m1 (Sonic Hedgehog (Shh)): ~7 fold

Molecule: O=C(C[C@@H]1C/C=C/CCC(=O)O[C@H](c2ccccc2)CNC1=O)NCc1ccc(Cl)cc1 [robotnikinin]
- Kd (Shh): 3100 nM

Molecule: Sonic Hedgehog (from UniProt Q15465)
- Kd [1]: 150 µM

Molecule: TLSW(Y*)EAMDMCTD (sidechain bridge or staple) [HL2-m5]
- Kd (Shh): 170 nM

Molecule: cyclic version of the HHIP L2 sequence (from UniProt Q96QV1 375-387) (peptide)
- Kd [2]: 3.6 µM

Molecule: cyclo[Y*D(X)ETGEC] (sidechain bridge or staple) [KKD(6X)-m1]
- fold higher affinity vs KKD-m1 (Keap1 Kelch domain (KKD)): ~3 fold

Molecule: cyclo[Y*D(X)ETGEC] (sidechain bridge or staple) [KKD(6X)-m2]
- fold higher affinity vs KKD-m1 (Keap1 Kelch domain (KKD)): ~3 fold

Molecule: [O2beY]DAETGEC (thioether 1-8) [KKD(6X)-m1]
- Kd [3]: 40 nM

Molecule: [O2beY]DIETGEC (thioether 1-8) [KKD(6X)-m2]
- Kd [3]: 40 nM
